According to patent US20070129334A1, “Orally Active Purine-Based Inhibitors of Heat Shock Protein 90” (CONFORMA THERAPEUTICS CORPORATION, priority 2001, published 2007):
Where two headings read alike, the source gives them in different places.

What was measured:
[1] = test system: HER-2 receptor (Hsp90 client) in MCF-7 cells; assay: HER-2 degradation assay (MCF-7 cells, 16 h, phycoerythrin-labeled antibody and flow cytometry); assay type: cell-based, human
[2] = Solubility in simulated gastric fluid, simulated intestinal fluid and serum; assay type: physicochemical; conditions: for Serum (PH 7.4): solubility in serum; for Gastric (PH 2.0): solubility in simulated gastric fluid; for Intestinal (PH 6.5): solubility in simulated intestinal fluid
[3] = Homo sapiens, MCF7, MCF-7 cells, 16 h, average of at least three observations, read-out: HER-2 IC50
[4] = Homo sapiens, MCF7, read-out: HER-2 IC50(nM)
[5] = Homo sapiens, MCF7, benzothiozole moiety SAR, MCF-7, read-out: HER-2 IC50
[6] = Homo sapiens, MCF7, read-out: HER-2

With `CCCCn1c(Cc2cc(OC)ccc2I)nc2c(N)ncnc21` [Compound 20, 9-Butyl-8-(2-iodo-5-methoxy-benzyl)-9H-purin-6-ylamine] the IC50 [1, 3] was 5000 nM.

For `CCCCn1c(Cc2cc(OC)ccc2Br)nc2c(N)ncnc21` [Compound 23, 8-(2-Bromo-5-methoxy-benzyl)-9-butyl-9H-purin-6-ylamine], the IC50 [1, 3] was 8000 nM.

With `CCCCn1c(Sc2cc(OC)ccc2OC)nc2c(N)ncnc21` [Compound 43, 9-Butyl-8-(2,5-dimethoxy-phenylsulfanyl)-9H-purin-6-ylamine] the IC50 [1, 3] was 3500 nM.

For `C#CCCCn1c(Sc2cc(OC)ccc2I)nc2c(N)nc(F)nc21` [Compound 68, 2-Fluoro-8-(2-iodo-5-methoxy-phenylsulfanyl)-9-pent-4-ynyl-9H-purin-6-ylamine], the IC50 [1, 3] was 360 nM.

In the case of `CCCCn1c(Sc2nc3cccc(Br)c3s2)nc2c(N)ncnc21` [Compound 171, 8-(7-Bromo-benzothiazol-2-ylsulfanyl)-9-butyl-9H-purine-6-ylamine], the IC50 [1, 4] is reported as 330 nM.

In the case of `CCCCn1c(Sc2nc3cccc(C)c3s2)nc2c(N)ncnc21` [Compound 172, 9-Butyl-8-(7-methyl-benzothiazol-2-ylsulfanyl)-9H-purine-6-ylamine], the IC50 [1, 4] is reported as 300 nM.

For `CCCCn1c(Sc2nc3cccc(OC)c3s2)nc2c(N)ncnc21` [Compound 173, 9-Butyl-8-(7-methoxy-benzothiazol-2-ylsulfanyl)-9H-purine-6-ylamine], the “Serum (PH 7.4)” value [2] was 18 µg/mL, the “Gastric (PH 2.0)” value [2] was 35 µg/mL and the “Intestinal (PH 6.5)” value [2] was 2 µg/mL. It also gave an IC50 [1, 4] of 190 nM.

Compound `CCCCn1c(Sc2nc3cccc(OCC)c3s2)nc2c(N)ncnc21` [Compound 174, 9-Butyl-8-(7-ethoxy-benzothiazol-2-ylsulfanyl)-9H-purine-6-ylamine] has an IC50 [1, 5] of 100000 nM.

`CCCCn1c(Sc2nc3cccc(F)c3s2)nc2c(N)ncnc21` [Compound 175, 9-Butyl-8-(7-fluoro-benzothiazol-2-ylsulfanyl)-9H-purine-6-ylamine] showed an IC50 [1, 4] of 200 nM.

Compound `CCCCn1c(Sc2nc3cncc(Cl)c3s2)nc2c(N)ncnc21` [Compound 177, 9-Butyl-8-(7-chloro-thiazole[4,5-c]pyridin-2-ylsulfanyl)-9H-purin-6-ylamine] has an IC50 ([1]; pyridothiazole moiety SAR, HER-2 degradation activity, read-out: HER-2) of 280 nM.

`CCCCn1c(Sc2nc3ccccc3s2)nc2c(N)ncnc21` [Compound 178, 8-(Benzothiazol-2-ylsulfanyl)-9-butyl-9H-purine-6-ylamine] showed an IC50 [1, 5] of 5000 nM.

`CCCCn1c(Sc2nc3ccc(Cl)cc3s2)nc2c(N)ncnc21` [Compound 179, 9-Butyl-8-(6-chloro-benzothiazol-2-ylsulfanyl)-9H-purine-6-ylamine] showed an IC50 [1, 5] of 7000 nM.

`CCCCn1c(Sc2nc3cc(Cl)ccc3s2)nc2c(N)ncnc21` [Compound 180, 9-Butyl-8-(5-chloro-benzothiazol-2-ylsulfanyl)-9H-purine-6-ylamine] showed an IC50 [1, 5] of 20000 nM.

Work on `CCCCn1c(Sc2nc3c(Cl)cccc3s2)nc2c(N)ncnc21` [Compound 181, 9-Butyl-8-(4-chloro-benzothiazol-2-ylsulfanyl)-9H-purine-6-ylamine] yielded an IC50 [1, 5] of 15000 nM.

With `CCCCn1c(Sc2nc3ccc(Cl)c(Cl)c3s2)nc2c(N)ncnc21` [Compound 185, 9-Butyl-8-(6,7-dichloro-benzothiazol-2-ylsulfanyl)-9H-purine-6-ylamine] the IC50 [1, 5] was 25000 nM.

With `CC(=O)OCCn1c(Sc2nc3cncc(Br)c3s2)nc2c(N)ncnc21` [Compound 204, Acetic acid 2-[6-amino-8-(7-bromo-thiazole[4,5-c]pyridin-2-ylsulfanyl)-purin-9-yl]-ethyl ester] the “Gastric (PH 2.0)” value [2] was 98.5 µg/mL and the IC50 ([1]; read-out: HER-2) was 30 nM.

Work on `CC(=O)OCCCn1c(Sc2nc3cncc(Cl)c3s2)nc2c(N)ncnc21` [Compound 205, Acetic acid 3-[6-amino-8-(7-chloro-thiazolo[4,5-c]pyridin-2-ylsulfanyl)-purin-9-yl]-propyl ester] yielded an IC50 [1, 6] of 170 nM.

In the case of `CCCCn1c(Sc2nc3cncc(Br)c3s2)nc2c(N)ncnc21` [Compound 207], the IC50 [1, 6] is reported as 400 nM.

In the case of `CCn1c(Sc2nc3cccc(Cl)c3s2)nc2c(N)ncnc21` [Compound 229, 9-ethyl-8-(7-chloro-benzothiazol-2-ylsulfanyl)-9H-purine-6-ylamine], the IC50 [1, 6] is reported as 200 nM.

`CCCn1c(Sc2nc3cccc(Cl)c3s2)nc2c(N)ncnc21` [Compound 231, 9-Propyl-8-(7-chloro-benzothiazol-2-ylsulfanyl)-9H-purine-6-ylamine] showed an IC50 [1, 6] of 250 nM.

`CCCCn1c(Sc2nc3cccc(Cl)c3s2)nc2c(N)ncnc21` [Compound 232, 9-Butyl-8-(7-chloro-benzothiazol-2-ylsulfanyl)-9H-purine-6-ylamine] gave an IC50 [1, 6] of 180 nM and an IC50 [1, 4] of 180 nM.

For `CCCCCn1c(Sc2nc3cccc(Cl)c3s2)nc2c(N)ncnc21` [Compound 233, 9-Pentyl-8-(7-chloro-benzothiazol-2-ylsulfanyl)-9H-purine-6-ylamine], the IC50 [1, 6] was 700 nM.

For `CC(=O)OCCn1c(Sc2nc3cccc(Cl)c3s2)nc2c(N)ncnc21` [Compound 241, Acetic acid 2-[6-amino-8-(7-chloro-benzothiazol-2-ylsulfanyl)-purin-9-yl]-ethyl ester], the IC50 [1, 6] was 150 nM.

For `CC(=O)OCCCCn1c(Sc2nc3cccc(Cl)c3s2)nc2c(N)ncnc21` [Compound 243, Acetic acid 4-[6-amino-8-(7-chloro-benzothiazol-2-ylsulfanyl)-purin-9-yl]-butyl ester], the “Gastric (PH 2.0)” value [2] was 46 µg/mL, the “Intestinal (PH 6.5)” value [2] was 3 µg/mL and the IC50 [1, 6] was 130 nM.

Work on `Nc1ncnc2c1nc(Sc1nc3cccc(Cl)c3s1)n2CCO` [Compound 244, 2-[6-Amino-8-(7-chloro-benzothiazol-2-ylsulfanyl)-purin-9-yl]-ethanol] yielded an IC50 [1, 6] of 300 nM.

In the case of `Nc1ncnc2c1nc(Sc1nc3cccc(Cl)c3s1)n2CCCO` [Compound 245], the IC50 [1, 6] is reported as 150 nM.

With `Nc1ncnc2c1nc(Sc1nc3cccc(Cl)c3s1)n2CCCCO` [Compound 246, 4-[6-Amino-8-(7-chloro-benzothiazol-2-ylsulfanyl)-purin-9-yl]-butan-1-ol] the IC50 [1, 6] was 150 nM.

For `CC(C)(C)CNCCn1c(Sc2nc3cccc(Cl)c3s2)nc2c(N)ncnc21` [Compound 247, 8-(7-Chloro-benzothiazol-2-ylsulfanyl)-9-[2-(2,2-dimethyl-propylamino)-ethyl]-9H-purin-6-yl amine], the “Serum (PH 7.4)” value [2] was 4.9 µg/mL, the “Intestinal (PH 6.5)” value [2] was 6 µg/mL and the IC50 [1, 6] was 35 nM.

With `CC(C)(C)NCCCn1c(Sc2nc3cccc(Cl)c3s2)nc2c(N)ncnc21` [Compound 253, 9-(3-tert-Butylamino-propyl)-8-(7-chloro-benzothiazol-2-ylsulfanyl)-9H-purin-6-yl amine] the “Serum (PH 7.4)” value [2] was 198.7 µg/mL, the “Intestinal (PH 6.5)” value [2] was 137.7 µg/mL and the IC50 [1, 6] was 150 nM.

`CC(C)(C)NCCn1c(Sc2nc3cccc(Cl)c3s2)nc2c(N)ncnc21` [Compound 265, 9-(2-tert-Butylamino-ethyl)-8-(7-chloro-benzothiazole-2-ylsulfanyl)-9H-purin-6-yl amine] showed an IC50 [1, 6] of 140 nM.

In the case of `CC(C)NCCCn1c(Sc2nc3cccc(Cl)c3s2)nc2c(N)ncnc21` [Compound 266, 8-(7-Chloro-benzothiazol-2-ylsulfanyl)-9-(3-isopropylamino-propyl)-9H-purin-6-yl amine], the IC50 [1, 6] is reported as 170 nM.

In the case of `Nc1ncnc2c1nc(Sc1nc3cccc(Cl)c3s1)n2CCN1CCOCC1` [Compound 270, 8-(7-Chloro-benzothiazol-2-ylsulfanyl)-9-(2-morpholin-4-yl-ethyl)-9H-purin-6-ylamine], the IC50 [1, 6] is reported as 250 nM.
